These results are taken from patent EP0377127B1, “Use of Myricetin-3-O-beta-D glucuronide as medicament” (Plantamed Arzneimittel GmbH, priority 1989, dated 1990).

In data set [1] the test system is Carrageenin-induzierte Rattenpfotenödem. Nature of the data set: Carrageenin-induced rat paw oedema (acute inflammation model). Format: in vivo, Ratte. On the procedure:
Zur Prüfung der entzündungshemmenden Wirkung dieser Substanz wird das Modell des Carrageenin-induzierten Rattenpfotenödems herangezogen, ein allgemein anerkanntes Modell zur Ermittlung anhand einer akuten Entzündung. Die entzündungshemmende Wirkung von vakuumgetrockneten und lyophilisierten Extrakten ist in Abb. 1 wiedergegeben. Bei der Anwendung von vakuumgetrocknetem Blattextrakt von Epilobium angustifolium wurde eine Dosis von 72 mg/kg Ratte, für sprühgetrockneten Blattextrakt eine Dosis von 136,47 mg/kg Ratte und für lyophilisierten Blattextrakt eine Dosis von 16,4 mg/kg Ratte eingesetzt. Das Ausmaß der entzündungswirkenden von vakuumgetrockneten und lyophilisierten Extrakten der in Abbildung 1 aufgezeigten Konzentrationen entspricht ca. 1 bis 2 mg Indometacin/kg Ratte.
Der Einfluß auf das Carrageenin-induzierte Rattenpfotenödem geht aus den Kurven in den Abbildungen 2 und 3 hervor. Abbildung 2 stellt unterschiedliche Dosen von HIMAK einander gegenüber, Abb. 3 dient dem Vergleich von HIMAK einer bestimmten Dosis mit einem wässrigen Auszug von Epilobium und Indometacin. Der Darstellung des Einflusses der erfindungsgemäßen Substanz auf die Prostaglandin-Biosynthese am pharmakologischen Modell nach ISAKSON, modifiziert nach JUAN und SAMETZ am perfundierten Kaninchenohr sowie mittels Radioimmunoassay (RIA) dienen die Abbildungen 4 und 5.

The subject of the next data set is PG-Biosynthese. Nature of the data set: Prostaglandin biosynthesis in the perfused rabbit ear (labelled arachidonic acid, metabolites separated by TLC; RIA). Format: cell-based, Kaninchen. The conditions noted are these: for inhibition at 1 µg/mL: Oryctolagus cuniculus, read-out: hemmen die Biosynthese von PGI₂ und PGE₂.
A further data set concerns Magenschleimhaut. The experiment in a line: Preliminary examination of gastric mucosa damage after peroral dosing. The note with it: 1 mg/kg, preliminary examinations. The data set is classed as in vivo. An excerpt:
Es ist gesicherte Erkenntnis, daß Cyclooxygenase-Hemmer, also Hemmer der Biosynthese von Prostaglandinen, wie etwa Indo, die Magenschleimhaut schädigen können. […] Im Ergebnis liefern diese Untersuchungen einen Hinweis auf die wesentlich günstiger zu beurteilende Frage der Toxizität von HIMAK.

Read-outs that look alike come from different tables or passages of the source. Where only a bound is given, the exact number is not on record here.

Source text for PG-Biosynthese: Methode: Perfundiertes Kaninchenohr mit C-Arachidonsäure, Vormarkierung und Messung der radioaktiven Metalboliten mittels Auftrennung durch DC. • 2.

`O=C(O)[C@H]1O[C@@H](Oc2c(-c3cc(O)c(O)c(O)c3)oc3cc(O)cc(O)c3c2=O)[C@H](O)[C@@H](O)[C@@H]1O` [HIMAK, Myricetin-3-0-β-D-glucuronid]: the “Dosisbereich, der das Carrageenin-Pfotenödem ähnlich stark reduziert wie 1 mg/kg Indomethacin (p.o.)” value in data set [1] (compared with 1 mg/kg Indomethacin p.o.) is on record as 40 - 200 »g/kg KG. In addition, the “Hemmung der experimentellen akuten Entzündung (Rattenpfotenödem mit Carrageenin) (in words)” value in data set [1] (dose-dependent) is listed as “deutlich hemmen”. For the same compound, in data set [1] (first experiments, weight basis), the “Wirksamkeit im Vergleich mit der Referenzsubstanz Indo auf Gewichtsbasis (in words)” value was “wesentlich wirksamer”. For the same compound, the “so wirksam wie Indo, auf geschätzter Molekulargewichtsbasis” value in data set [1] (potency relative to Indo, estimated molecular weight basis) is given as about 5 mal. The “so wirksam wie Indo, auf Gewichtsbasis” value in data set [1] (potency relative to Indo, weight basis) is at least 10 mal. The inhibition at 1 µg/mL in the data set on PG-Biosynthese (1 »g/ml (Endkonzentration) Indo, ca. 1 »g/ml HIMAK, perfused rabbit ear) was over 80%. In addition, the “Hemmung der Biosynthese von Prostaglandinen (in words)” value in the data set with PG-Biosynthese (dose-dependent) is “deutlich hemmen”. Besides, in the data set with PG-Biosynthese (weight basis, similar concentration as Indo (Abb. 4)), the “Hemmung der PG-Biosynthese im Vergleich mit Indo (in words)” value is recorded as “in etwa gleichem Ausmaß gehemmt”. The “Bildung kleiner Erosionen in der Magenschleimhaut” value in the data set with Magenschleimhaut was “nicht der Fall”.

With `COc1ccc2c(c1)c(CC(=O)O)c(C)n2C(=O)c1ccc(Cl)cc1` [Indo, Indometacin, reference compound], the inhibition at 1 µg/mL with PG-Biosynthese was over 80%. Further, the “Bildung kleiner Erosionen in der Magenschleimhaut” value in the data set on Magenschleimhaut is on record as “Bildung kleiner Erosionen in der Magenschleimhaut”.
